The values below come from PubChem BioAssay AID602267 (Broad Institute, 2012).

The source made the active and inactive calls.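 How the source made its calls: active means signal falls with dose and the fitted half-maximal concentration is at or below twice the top valid tested dose; inconclusive means flat curve with 30 to 70% inhibition, or poor fit; inactive means wrong direction, flat within 30%, or potency beyond limit.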

This test concerns the target Golgi-associated PDZ and coiled-coil motif-containing protein (Homo sapiens) (UniProt Q9HD26). As to the kind of experiment: blockers of CAL PDZ ligand groove binding – biochemical, fluorescence polarization, untagged CAL PDZ, cherry-pick, dose response (AID 602267). As to conditions: purified CAL PDZ, TMR-peptide fluorescence polarization, 1 h; at 50 µM (top of the series).
Consider `CCCCOc1ccc(C(=O)N2CCNC(=O)C2CC(=O)OC(C)C)cc1` (centres undefined), for which the “activity change, negative = inhibition” value was “inactive”.

On to `O=C(NC(Cc1c[nH]c2ccccc12)C(=O)O)/C(=C/c1ccc(F)cc1)NC(=O)c1ccccc1` (centres undefined), for which the “activity change, negative = inhibition” value was “inactive”.

Consider `CC1CCC(NC(=O)C2CCN(c3cnccn3)CC2)CC1` (centres undefined), for which the “activity change, negative = inhibition” value was “inactive”.

Consider `CCOc1ccc(S(=O)(=O)N2CCCCC2)c(C)c1C`, for which the “activity change, negative = inhibition” value is “inactive”.

Turning to `CCN(CCCn1c(=S)[nH]c2ccc(N3CCOCC3)cc2c1=O)c1ccccc1`, the “activity change, negative = inhibition” value is “inactive”.

Consider `Cc1nc2ccc(Br)cn2c1C(=O)N/N=C\c1ccc(C(C)C)cc1`, for which the “activity change, negative = inhibition” value is “inactive”.

In the case of `COc1ccc(/C=N/NC(=O)c2cccc(C(F)(F)F)c2)cc1`, the “activity change, negative = inhibition” value was “inactive”.

As to `Cc1nc(Cl)sc1C(=O)Nc1cc(F)cc(F)c1`, the “activity change, negative = inhibition” value was “inactive”.

Turning to `C/C(=N\NC(=O)c1cc(-c2ccc(C)s2)nc2ccccc12)c1cccnc1`, the “activity change, negative = inhibition” value was “inactive”.

On to `COC(=O)c1ccc(CNC(=O)COC(=O)c2cc(Cl)nc(Cl)c2)cc1`, for which the “activity change, negative = inhibition” value is “inactive”.

Consider `CSc1cccc(NC(=O)N2CCCC(CNS(=O)(=O)Cc3ccccc3)C2)c1` (centres undefined), for which the “activity change, negative = inhibition” value was “inactive”.

For `CCOc1c(Cl)cc(CNc2nnnn2C)cc1OC`, the “activity change, negative = inhibition” value was “inactive”.

As to `O=C(Nc1ccccc1Cl)Nc1cccnc1Cl`, the “activity change, negative = inhibition” value was “inactive”.

Take `C[C@H](NC(=O)c1ccccc1Cl)C(=O)NCc1cccs1`: the “activity change, negative = inhibition” value is “inactive”.

As for `O=c1c2cc3c(cc2[nH]c(=S)n1CCN1CCOCC1)OCO3`, the “activity change, negative = inhibition” value is “inactive”.

`COc1ccc(Cl)cc1C(=O)Nc1ccc2c(c1)OCCO2`: the “activity change, negative = inhibition” value was “inactive”.

As for `COc1ccc(CCn2c(=S)[nH]c3ccc(N4CCOCC4)cc3c2=O)cc1OC`, the “activity change, negative = inhibition” value is “inactive”.

`COc1cccc(N2CCN(C(=O)c3ccc(-c4ccccc4)cc3)CC2)c1`: the “activity change, negative = inhibition” value is “inactive”.

On to `Cc1cc(C)c(OCC(=O)OC(C)C(=O)NC2CC2)c(C)c1` (centres undefined), for which the “activity change, negative = inhibition” value was “inactive”.

As for `Cn1nc(C(=O)N2CCCc3ccccc32)c2ccccc2c1=O`, the “activity change, negative = inhibition” value was “inactive”.

`Cc1ccc(-n2c(SCC(N)=O)nnc2-c2ccco2)cc1`: the “activity change, negative = inhibition” value was “inactive”.

In the case of `CCOc1ccccc1CN1CCC(n2nccc2NC(=O)C2CCCC2)CC1`, the “activity change, negative = inhibition” value is “inactive”.

In the case of `CCCCN1CC(O)=C(c2nc(-c3ccc(Cl)cc3)cs2)C1=N`, the “activity change, negative = inhibition” value was “inactive”.

With `O=C(NNC(=O)c1c(F)cccc1F)c1sccc1-n1cccc1`, the “activity change, negative = inhibition” value is “inactive”.

Consider `O=C(CN(Cc1ccccc1)S(=O)(=O)c1ccc(F)cc1)NCCC1=CCCCC1`, for which the “activity change, negative = inhibition” value is “inactive”.

As for `CC(C)=Cc1oc2ccc([N+](=O)[O-])cc2c1N1CCOCC1`, the “activity change, negative = inhibition” value was “inactive”.

On to `O=C(c1ccc(F)cc1Cl)N1CCC2(CC1)OCCO2`, for which the “activity change, negative = inhibition” value was “inactive”.

Take `COc1ccc(/C=N/Nc2cc(C)nc3ccc(OC)cc23)c(OC)c1`: the “activity change, negative = inhibition” value was “inactive”.

With `CCCCNC(=O)c1ccc(-n2c(=S)[nH]c3ccccc3c2=O)cc1`, the “activity change, negative = inhibition” value is “inactive”.

Consider `CCC(C(=O)NN1C(=O)c2ccccc2C1=O)c1ccccc1` (centres undefined), for which the “activity change, negative = inhibition” value was “inactive”.

Take `COc1cc(C)cc(CN2CC=C(c3ccccc3)CC2)c1O`: the “activity change, negative = inhibition” value was “inactive”.

`CCCSC1=N/C(=C\c2ccc([N+](=O)[O-])o2)C(=O)S1`: the “activity change, negative = inhibition” value was “inactive”.

On to `Cc1cc(C)c(C(=O)N2CCC3(CC2)OCCO3)c(C)c1`, for which the “activity change, negative = inhibition” value was “inactive”.

On to `CN(C)CCNC(=O)COc1cccc2c1OC(C)(C)C2`, for which the “activity change, negative = inhibition” value was “inactive”.
